{"source": "ChEMBL document CHEMBL4024742", "about": "“Pharmaceutical Approaches to Target Antibiotic Resistance Mechanisms” (J Med Chem, 2017)", "key": {"Staphylococcus aureus [1]": {"system": "Staphylococcus aureus", "experiment": "Potentiation of ciprofloxacin induced-antimicrobial activity against Staphylococcus aureus ATCC 29213 assessed as fold reduction in ciprofloxacin MIC at 31.25 uM by broth microdilution method", "format": "functional"}, "Staphylococcus aureus [2]": {"system": "Staphylococcus aureus", "experiment": "Antibacterial activity against glycopeptide-intermediate Staphylococcus aureus by broth microdilution method", "format": "functional"}, "Staphylococcus aureus [3]": {"system": "Staphylococcus aureus", "experiment": "Antibacterial activity against methicillin-sensitive Staphylococcus aureus by broth microdilution method", "format": "functional"}, "[4]": {"molecular_target": "T1, Quinolone resistance protein NorA (Staphylococcus aureus, UniProt P0A0J7)", "T1 sequence (P0A0J7 whole entry)": "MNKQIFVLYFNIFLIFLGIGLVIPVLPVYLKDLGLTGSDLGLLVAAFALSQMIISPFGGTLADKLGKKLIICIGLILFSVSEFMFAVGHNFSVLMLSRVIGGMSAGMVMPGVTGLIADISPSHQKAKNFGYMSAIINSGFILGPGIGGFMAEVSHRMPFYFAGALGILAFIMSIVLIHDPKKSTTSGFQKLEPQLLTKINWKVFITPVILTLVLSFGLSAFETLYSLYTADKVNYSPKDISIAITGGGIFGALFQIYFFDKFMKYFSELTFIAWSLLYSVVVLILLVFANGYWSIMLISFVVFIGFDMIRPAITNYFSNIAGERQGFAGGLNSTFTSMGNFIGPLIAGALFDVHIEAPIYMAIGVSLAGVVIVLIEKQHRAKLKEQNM", "experiment": "Inhibition of Staphylococcus aureus 1199B NorA assessed as reduction in ethidium bromide efflux by fluorescence assay"}, "Staphylococcus aureus [5]": {"system": "Staphylococcus aureus", "experiment": "Inhibition of biofilm formation in Staphylococcus aureus 702 at 0.045 ug/ml after 24 hrs by MTT assay", "format": "functional", "conditions": "Staphylococcus aureus, 702, 24 h"}, "[6]": {"system": "Staphylococcus epidermidis", "experiment": "Inhibition of biofilm formation in Staphylococcus epidermidis DSM 3269 at 0.045 ug/ml after 24 hrs by MTT assay", "format": "functional", "conditions": "DSM 3269, 24 h"}, "Staphylococcus aureus [7]": {"system": "Staphylococcus aureus", "experiment": "Inhibition of biofilm formation in Staphylococcus aureus 657 at 0.045 ug/ml after 24 hrs by MTT assay", "format": "functional", "conditions": "Staphylococcus aureus, 657, 24 h"}, "[8]": {"system": "Staphylococcus epidermidis", "experiment": "Inhibition of biofilm formation in Staphylococcus epidermidis RP62A at 0.045 ug/ml after 24 hrs by MTT assay", "format": "functional"}, "Staphylococcus aureus [9]": {"system": "Staphylococcus aureus", "experiment": "Inhibition of biofilm formation in Staphylococcus aureus ATCC 29213 at 0.045 ug/ml after 24 hrs by MTT assay", "format": "functional", "conditions": "ATCC 29213, 24 h"}, "Staphylococcus aureus [10]": {"system": "Staphylococcus aureus", "experiment": "Inhibition of biofilm formation in Staphylococcus aureus ATCC 25923 at 0.045 ug/ml after 24 hrs by MTT assay", "format": "functional", "conditions": "ATCC 25923, 24 h"}, "Pseudomonas aeruginosa [11]": {"system": "Pseudomonas aeruginosa", "experiment": "Antibiofilm activity against wild-type Pseudomonas aeruginosa PAO1 after 24 hrs by crystal violet staining based assay", "format": "functional", "conditions": "PAO1, 24 h"}, "Escherichia coli [12]": {"system": "Escherichia coli", "experiment": "Antimicrobial activity against Escherichia coli", "format": "functional"}, "Pseudomonas aeruginosa [13]": {"system": "Pseudomonas aeruginosa", "experiment": "Antimicrobial activity against Pseudomonas aeruginosa", "format": "functional"}, "[14]": {"experiment": "Inhibition of Escherichia coli PBP2"}, "Enterobacter": {"system": "Enterobacter", "experiment": "Antimicrobial activity against Enterobacter", "format": "functional"}, "[15]": {"experiment": "Inhibition of bacterial beta-lactamase CMY-2 using nitrocefin as substrate by spectrophotometric analysis", "set-up": "species or system Bacteria"}, "[16]": {"experiment": "Inhibition of bacterial beta-lactamase KPC-2 using nitrocefin as substrate by spectrophotometric analysis", "set-up": "species or system Bacteria"}, "[17]": {"experiment": "Inhibition of bacterial beta-lactamase CTX-M-9 using nitrocefin as substrate by spectrophotometric analysis", "set-up": "species or system Bacteria"}, "[18]": {"experiment": "Inhibition of bacterial beta-lactamase TEM-1 using nitrocefin as substrate by spectrophotometric analysis", "set-up": "species or system Bacteria"}, "Escherichia coli [19]": {"system": "Escherichia coli", "experiment": "Potentiation of ciprofloxacin induced-antimicrobial activity against multi drug-resistant Escherichia coli AG112 assessed as fold reduction in ciprofloxacin MIC at 100 ug/ml by broth microdilution method", "format": "functional"}, "Escherichia coli [20]": {"system": "Escherichia coli", "experiment": "Potentiation of florfenicol induced-antimicrobial activity against multi drug-resistant Escherichia coli AG112 assessed as fold reduction in florfenicol MIC at 100 ug/ml by broth microdilution method", "format": "functional"}, "Escherichia coli [21]": {"system": "Escherichia coli", "experiment": "Potentiation of tetracycline induced-antimicrobial activity against multi drug-resistant Escherichia coli AG112 assessed as fold reduction in tetracycline MIC at 100 ug/ml by broth microdilution method", "format": "functional"}, "Acinetobacter baumannii": {"system": "Acinetobacter baumannii", "experiment": "Antibiofilm activity against multi drug-resistant Acinetobacter baumannii ATCC 19606 assessed as biofilm dispersion after 24 hrs by crystal violet staining based assay", "format": "functional", "conditions": "ATCC 19606 = CIP 70.34 = JCM 6841, 24 h"}, "Staphylococcus aureus [22]": {"system": "Staphylococcus aureus", "experiment": "Antibiofilm activity against methicillin-resistant Staphylococcus aureus BAA-44 after 24 hrs by crystal violet staining based assay", "format": "functional", "conditions": "BAA-44, 24 h"}, "Staphylococcus aureus [23]": {"system": "Staphylococcus aureus", "experiment": "Antibiofilm activity against methicillin-resistant Staphylococcus aureus BAA-44 at 100 uM after 24 hrs by crystal violet staining based assay", "format": "functional", "conditions": "BAA-44, 24 h"}, "Staphylococcus aureus [24]": {"system": "Staphylococcus aureus", "experiment": "Antibacterial activity against planktonic Staphylococcus aureus ATCC 43866 after 24 hrs by broth microdilution method", "format": "functional", "conditions": "ATCC 43866, 24 h"}, "Staphylococcus aureus [25]": {"system": "Staphylococcus aureus", "experiment": "Inhibition of biofilm formation in Staphylococcus aureus ATCC 29213 at 6.2 ug/ml after 24 hrs by MTT assay", "format": "functional", "conditions": "ATCC 29213, 24 h"}, "Staphylococcus aureus [26]": {"system": "Staphylococcus aureus", "experiment": "Inhibition of biofilm formation in Staphylococcus aureus ATCC 43866 at 25 ug/ml after 24 hrs by MTT assay", "format": "functional", "conditions": "ATCC 43866, 24 h"}, "Staphylococcus aureus [27]": {"system": "Staphylococcus aureus", "experiment": "Antibacterial activity against planktonic Staphylococcus aureus ATCC 29213 after 24 hrs by broth microdilution method", "format": "functional", "conditions": "ATCC 29213, 24 h"}, "[28]": {"system": "Staphylococcus epidermidis", "experiment": "Antibacterial activity against planktonic Staphylococcus epidermidis RP62A after 24 hrs by broth microdilution method", "format": "functional"}, "Escherichia coli [29]": {"system": "Escherichia coli", "experiment": "Potentiation of piperacillin induced-antimicrobial activity against Escherichia coli AB1157 assessed as fold reduction in piperacillin MIC at 12.5 uM by broth microdilution method", "format": "functional"}, "Escherichia coli [30]": {"system": "Escherichia coli", "experiment": "Potentiation of ciprofloxacin induced-antimicrobial activity against Escherichia coli AB1157 assessed as fold reduction in ciprofloxacin MIC at 12.5 uM by broth microdilution method", "format": "functional"}, "Escherichia coli [31]": {"system": "Escherichia coli", "experiment": "Potentiation of 0.016 ug/ml ciprofloxacin induced-antimicrobial activity against Escherichia coli AB1157 assessed as fold reduction in cell viability at 3.13 uM after 4 hrs by time kill assay", "format": "functional"}, "Escherichia coli [32]": {"system": "Escherichia coli", "experiment": "Potentiation of levofloxacin induced-antimicrobial activity against Escherichia coli AB1157 assessed as fold reduction in levofloxacin MIC at 12.5 uM by broth microdilution method", "format": "functional"}, "Staphylococcus aureus [33]": {"system": "Staphylococcus aureus", "experiment": "Antibiofilm activity against methicillin-resistant Staphylococcus aureus BAA-1765", "format": "functional"}, "Staphylococcus aureus [34]": {"system": "Staphylococcus aureus", "experiment": "Antibiofilm activity against methicillin-resistant Staphylococcus aureus BAA-43300", "format": "functional"}, "Staphylococcus aureus [35]": {"system": "Staphylococcus aureus", "experiment": "Antibiofilm activity against methicillin-resistant Staphylococcus aureus BAA-1770", "format": "functional"}}}
{"smiles": "COc1cc(O)c2c(C)c(-c3ccccc3)c(=O)[nH]c2c1", "values": [{"measurement": "fold change (FC)", "setting": "Staphylococcus aureus [1]", "result": 4}, {"measurement": "MIC", "setting": "Staphylococcus aureus [2]", "result": "17.6 to 35.1", "unit": "µg/mL"}, {"measurement": "MIC", "setting": "Staphylococcus aureus [3]", "result": "17.6 to 35.1", "unit": "µg/mL"}, {"measurement": "IC50", "setting": "[4]", "result": 18, "unit": "µM"}]}
{"smiles": "O=C(c1cc(Br)ccc1O)c1[nH]c(Cl)c(Cl)c1Br", "values": [{"measurement": "inhibition at 0.045 µg/mL", "setting": "Staphylococcus aureus [5]", "result": "> 50", "unit": "%"}, {"measurement": "inhibition at 0.045 µg/mL", "setting": "[6]", "result": "> 50", "unit": "%"}, {"measurement": "inhibition at 0.045 µg/mL", "setting": "Staphylococcus aureus [7]", "result": "> 50", "unit": "%"}, {"measurement": "inhibition at 0.045 µg/mL", "setting": "[8]", "result": "> 50", "unit": "%"}, {"measurement": "inhibition at 0.045 µg/mL", "setting": "Staphylococcus aureus [9]", "result": "> 50", "unit": "%"}, {"measurement": "inhibition at 0.045 µg/mL", "setting": "Staphylococcus aureus [10]", "result": "> 50", "unit": "%"}]}
{"smiles": "Cc1cc2nc(N)[nH]c2cc1C", "values": [{"measurement": "IC50", "setting": "Pseudomonas aeruginosa [11]", "result": 4, "unit": "µM"}]}
{"smiles": "CC(=O)NNC(=O)[C@@H]1CC[C@@H]2CN1C(=O)N2OS(=O)(=O)[O-].[Na+]", "values": [{"measurement": "MIC", "setting": "Escherichia coli [12]", "result": "≤ 2", "unit": "µg/mL"}, {"measurement": "MIC", "setting": "Pseudomonas aeruginosa [13]", "result": "≤ 2", "unit": "µg/mL"}, {"measurement": "IC50", "setting": "[14]", "result": 3.2, "unit": "µM"}, {"measurement": "MIC", "setting": "Enterobacter", "result": "≤ 2", "unit": "µg/mL"}, {"measurement": "IC50", "setting": "[15]", "result": "0.008 to 0.327", "unit": "µM"}, {"measurement": "IC50", "setting": "[16]", "result": "0.008 to 0.327", "unit": "µM"}, {"measurement": "IC50", "setting": "[17]", "result": "0.008 to 0.327", "unit": "µM"}, {"measurement": "IC50", "setting": "[18]", "result": "0.008 to 0.327", "unit": "µM"}]}
{"smiles": "c1ccc2c(CN3CCNCC3)cccc2c1", "values": [{"measurement": "fold change (FC)", "setting": "Escherichia coli [19]", "result": 4}, {"measurement": "fold change (FC)", "setting": "Escherichia coli [20]", "result": 4}, {"measurement": "fold change (FC)", "setting": "Escherichia coli [21]", "result": 4}]}
{"smiles": "CCCCOc1ccc(/C=C(\\C)Cn2cc(CCCCCc3c[nH]c(N)n3)nn2)cc1", "values": [{"measurement": "IC50", "setting": "Acinetobacter baumannii", "result": 44.7, "unit": "µM"}, {"measurement": "IC50", "setting": "Staphylococcus aureus [22]", "result": 8.55, "unit": "µM"}, {"measurement": "inhibition at 100 µM", "setting": "Staphylococcus aureus [23]", "result": "> 94", "unit": "%"}]}
{"smiles": "Cc1nn(C)c([N-]C(=O)c2ccc([N+](=O)[O-])cc2)c1[N+]#N", "values": [{"measurement": "MIC", "setting": "Staphylococcus aureus [24]", "result": "1.5 to 12.5", "unit": "µg/mL"}, {"measurement": "inhibition at 6.2 µg/mL", "setting": "Staphylococcus aureus [25]", "result": 86.5, "unit": "%"}, {"measurement": "inhibition at 25 µg/mL", "setting": "Staphylococcus aureus [26]", "result": "69 to 96", "unit": "%"}, {"measurement": "MIC", "setting": "Staphylococcus aureus [27]", "result": "1.5 to 12.5", "unit": "µg/mL"}, {"measurement": "MIC", "setting": "[28]", "result": "1.5 to 12.5", "unit": "µg/mL"}]}
{"smiles": "CC1(C)Cc2c(C#N)c(SCCc3ccccc3)nc(N3CCOCC3)c2CO1", "values": [{"measurement": "fold change (FC)", "setting": "Escherichia coli [29]", "result": 8}, {"measurement": "fold change (FC)", "setting": "Escherichia coli [30]", "result": 2}, {"measurement": "fold change (FC)", "setting": "Escherichia coli [31]", "result": 10000}, {"measurement": "fold change (FC)", "setting": "Escherichia coli [32]", "result": 4}]}
{"smiles": "CCCCCc1ccc(C(=O)NCCn2cc(CCCCCc3c[nH]c(NCc4ccc(CCCC)cc4)n3)nn2)cc1", "values": [{"measurement": "IC50", "setting": "Staphylococcus aureus [33]", "result": "16 to 18", "unit": "µM"}, {"measurement": "IC50", "setting": "Staphylococcus aureus [34]", "result": "16 to 18", "unit": "µM"}, {"measurement": "IC50", "setting": "Staphylococcus aureus [35]", "result": "16 to 18", "unit": "µM"}]}
